Assay results as given in ChEMBL document CHEMBL4715864, “Discovery of 2-(5-(quinolin-6-yl)-1,3,4-oxadiazol-2-yl)acetamide derivatives as novel PI3Kα inhibitors via docking-based virtual screening” (Bioorg Med Chem, 2021).

Assays:
[1] = biological target: T1, Phosphatidylinositol 4,5-bisphosphate 3-kinase catalytic subunit alpha isoform (Homo sapiens, UniProt P42336); assay: Inhibition of PI3Kalpha (unknown origin) using PIP2 as substrate measured after 1 hr by ADP-glo plus luminescence assay
[2] = biological target: T1, Phosphatidylinositol 4,5-bisphosphate 3-kinase catalytic subunit alpha isoform; assay: Inhibition of PI3Kalpha (unknown origin) assessed as inhibition rate using PIP2 as substrate at 10 uM measured after 1 hr by ADP-glo plus luminescence assay
[3] = organism: Homo sapiens; assay: Selectivity ratio of IC50 for PI3Kgamma (unknown origin) to IC50 for PI3Kalpha (unknown origin)
[4] = biological target: Phosphatidylinositol 4,5-bisphosphate 3-kinase catalytic subunit gamma isoform (Homo sapiens, UniProt P48736); assay: Inhibition of PI3Kgamma (unknown origin) using PIP2 as substrate measured after 1 hr by ADP-glo plus luminescence assay
[5] = biological target: Phosphatidylinositol 4,5-bisphosphate 3-kinase catalytic subunit beta isoform (Homo sapiens, UniProt P42338); assay: Inhibition of PI3Kbeta (unknown origin) using PIP2 as substrate measured after 1 hr by ADP-glo plus luminescence assay
[6] = biological target: T2, Phosphatidylinositol 4,5-bisphosphate 3-kinase catalytic subunit delta isoform (Homo sapiens, UniProt O00329); assay: Inhibition of PI3Kdelta (unknown origin) using PIP2 as substrate measured after 1 hr by ADP-glo plus luminescence assay
T2 sequence (O00329 whole entry): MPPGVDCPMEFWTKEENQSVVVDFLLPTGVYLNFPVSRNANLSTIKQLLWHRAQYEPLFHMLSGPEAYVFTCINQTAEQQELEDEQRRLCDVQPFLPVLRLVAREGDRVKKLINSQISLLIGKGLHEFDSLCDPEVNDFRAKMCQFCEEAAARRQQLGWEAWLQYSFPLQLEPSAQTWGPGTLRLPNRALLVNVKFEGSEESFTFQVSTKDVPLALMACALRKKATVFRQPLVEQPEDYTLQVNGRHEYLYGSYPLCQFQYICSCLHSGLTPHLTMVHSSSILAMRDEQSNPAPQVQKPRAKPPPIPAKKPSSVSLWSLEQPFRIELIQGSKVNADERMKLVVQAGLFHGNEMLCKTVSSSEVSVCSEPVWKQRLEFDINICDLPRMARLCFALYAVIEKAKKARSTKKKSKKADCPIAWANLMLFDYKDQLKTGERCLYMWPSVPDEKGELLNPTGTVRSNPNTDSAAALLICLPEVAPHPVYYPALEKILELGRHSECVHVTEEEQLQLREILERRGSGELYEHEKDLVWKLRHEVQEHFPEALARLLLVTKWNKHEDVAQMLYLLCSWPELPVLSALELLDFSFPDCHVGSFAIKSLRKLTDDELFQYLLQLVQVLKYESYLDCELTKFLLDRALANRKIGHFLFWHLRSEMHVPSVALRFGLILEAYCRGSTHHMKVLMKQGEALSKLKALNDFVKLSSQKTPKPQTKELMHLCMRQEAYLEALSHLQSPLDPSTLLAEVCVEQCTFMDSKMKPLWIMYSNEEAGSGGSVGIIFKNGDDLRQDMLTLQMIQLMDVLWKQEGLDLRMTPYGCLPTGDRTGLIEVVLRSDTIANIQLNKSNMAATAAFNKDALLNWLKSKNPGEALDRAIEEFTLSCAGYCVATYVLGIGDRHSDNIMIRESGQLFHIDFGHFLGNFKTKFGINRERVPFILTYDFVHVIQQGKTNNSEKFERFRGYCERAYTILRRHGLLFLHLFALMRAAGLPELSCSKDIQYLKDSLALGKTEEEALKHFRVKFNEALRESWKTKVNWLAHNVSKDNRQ

T1 sequence (P42336 whole entry, canonical isoform): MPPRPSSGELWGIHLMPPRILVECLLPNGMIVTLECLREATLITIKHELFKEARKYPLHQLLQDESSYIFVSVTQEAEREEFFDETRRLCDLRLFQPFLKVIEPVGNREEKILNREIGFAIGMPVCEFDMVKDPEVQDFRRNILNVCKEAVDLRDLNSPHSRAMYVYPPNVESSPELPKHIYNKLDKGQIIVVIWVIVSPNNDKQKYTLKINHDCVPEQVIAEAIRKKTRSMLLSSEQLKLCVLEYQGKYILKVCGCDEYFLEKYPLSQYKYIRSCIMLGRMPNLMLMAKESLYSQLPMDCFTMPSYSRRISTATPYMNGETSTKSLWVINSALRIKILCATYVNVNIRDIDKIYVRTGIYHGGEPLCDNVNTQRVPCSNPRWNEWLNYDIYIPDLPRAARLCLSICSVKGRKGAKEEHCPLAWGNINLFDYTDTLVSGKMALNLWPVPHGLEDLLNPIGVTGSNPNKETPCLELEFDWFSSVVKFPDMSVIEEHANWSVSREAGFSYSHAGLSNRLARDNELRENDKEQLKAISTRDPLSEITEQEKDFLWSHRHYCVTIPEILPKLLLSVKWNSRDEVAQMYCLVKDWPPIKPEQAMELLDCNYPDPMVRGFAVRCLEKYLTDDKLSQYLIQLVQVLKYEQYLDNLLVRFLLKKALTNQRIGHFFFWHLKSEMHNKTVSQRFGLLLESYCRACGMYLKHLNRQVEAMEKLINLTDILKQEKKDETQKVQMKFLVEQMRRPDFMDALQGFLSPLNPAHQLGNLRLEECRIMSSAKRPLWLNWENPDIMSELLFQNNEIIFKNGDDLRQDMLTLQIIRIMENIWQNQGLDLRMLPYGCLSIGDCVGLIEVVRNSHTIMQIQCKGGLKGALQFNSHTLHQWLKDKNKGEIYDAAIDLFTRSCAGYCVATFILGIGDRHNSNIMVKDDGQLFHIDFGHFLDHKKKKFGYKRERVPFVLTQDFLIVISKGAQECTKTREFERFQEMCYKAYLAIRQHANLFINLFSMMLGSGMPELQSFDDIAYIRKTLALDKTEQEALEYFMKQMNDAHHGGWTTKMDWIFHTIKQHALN
Sequence of Phosphatidylinositol 4,5-bisphosphate 3-kinase catalytic subunit gamma isoform (P48736 whole entry, canonical isoform): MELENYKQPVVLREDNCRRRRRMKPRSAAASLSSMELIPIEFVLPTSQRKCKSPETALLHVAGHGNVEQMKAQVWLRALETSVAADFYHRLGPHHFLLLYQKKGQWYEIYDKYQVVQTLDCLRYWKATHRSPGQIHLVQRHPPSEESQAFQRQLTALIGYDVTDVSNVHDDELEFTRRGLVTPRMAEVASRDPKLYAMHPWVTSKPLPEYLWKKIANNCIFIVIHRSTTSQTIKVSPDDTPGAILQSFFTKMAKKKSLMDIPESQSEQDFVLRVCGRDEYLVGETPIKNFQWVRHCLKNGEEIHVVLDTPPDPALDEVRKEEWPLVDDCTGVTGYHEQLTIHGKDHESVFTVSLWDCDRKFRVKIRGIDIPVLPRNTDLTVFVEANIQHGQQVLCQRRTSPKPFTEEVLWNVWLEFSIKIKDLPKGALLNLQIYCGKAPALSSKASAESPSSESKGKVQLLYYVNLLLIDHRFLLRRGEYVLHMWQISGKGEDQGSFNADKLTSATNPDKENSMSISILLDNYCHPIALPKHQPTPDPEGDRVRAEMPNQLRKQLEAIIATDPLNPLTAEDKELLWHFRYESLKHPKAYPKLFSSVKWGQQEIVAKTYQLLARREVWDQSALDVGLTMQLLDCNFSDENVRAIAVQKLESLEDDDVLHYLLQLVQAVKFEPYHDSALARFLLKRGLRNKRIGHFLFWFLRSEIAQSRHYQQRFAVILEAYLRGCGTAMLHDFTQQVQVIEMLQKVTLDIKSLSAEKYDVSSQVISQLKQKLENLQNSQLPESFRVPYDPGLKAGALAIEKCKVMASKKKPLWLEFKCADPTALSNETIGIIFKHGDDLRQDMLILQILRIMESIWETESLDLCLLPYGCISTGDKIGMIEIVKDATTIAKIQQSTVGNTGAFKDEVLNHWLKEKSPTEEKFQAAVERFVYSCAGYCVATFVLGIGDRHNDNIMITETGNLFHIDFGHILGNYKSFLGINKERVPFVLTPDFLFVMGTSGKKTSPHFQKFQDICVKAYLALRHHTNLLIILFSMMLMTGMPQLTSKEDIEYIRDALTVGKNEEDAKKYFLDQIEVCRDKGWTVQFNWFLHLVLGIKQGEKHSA
Sequence of Phosphatidylinositol 4,5-bisphosphate 3-kinase catalytic subunit beta isoform (P42338 whole entry, canonical isoform): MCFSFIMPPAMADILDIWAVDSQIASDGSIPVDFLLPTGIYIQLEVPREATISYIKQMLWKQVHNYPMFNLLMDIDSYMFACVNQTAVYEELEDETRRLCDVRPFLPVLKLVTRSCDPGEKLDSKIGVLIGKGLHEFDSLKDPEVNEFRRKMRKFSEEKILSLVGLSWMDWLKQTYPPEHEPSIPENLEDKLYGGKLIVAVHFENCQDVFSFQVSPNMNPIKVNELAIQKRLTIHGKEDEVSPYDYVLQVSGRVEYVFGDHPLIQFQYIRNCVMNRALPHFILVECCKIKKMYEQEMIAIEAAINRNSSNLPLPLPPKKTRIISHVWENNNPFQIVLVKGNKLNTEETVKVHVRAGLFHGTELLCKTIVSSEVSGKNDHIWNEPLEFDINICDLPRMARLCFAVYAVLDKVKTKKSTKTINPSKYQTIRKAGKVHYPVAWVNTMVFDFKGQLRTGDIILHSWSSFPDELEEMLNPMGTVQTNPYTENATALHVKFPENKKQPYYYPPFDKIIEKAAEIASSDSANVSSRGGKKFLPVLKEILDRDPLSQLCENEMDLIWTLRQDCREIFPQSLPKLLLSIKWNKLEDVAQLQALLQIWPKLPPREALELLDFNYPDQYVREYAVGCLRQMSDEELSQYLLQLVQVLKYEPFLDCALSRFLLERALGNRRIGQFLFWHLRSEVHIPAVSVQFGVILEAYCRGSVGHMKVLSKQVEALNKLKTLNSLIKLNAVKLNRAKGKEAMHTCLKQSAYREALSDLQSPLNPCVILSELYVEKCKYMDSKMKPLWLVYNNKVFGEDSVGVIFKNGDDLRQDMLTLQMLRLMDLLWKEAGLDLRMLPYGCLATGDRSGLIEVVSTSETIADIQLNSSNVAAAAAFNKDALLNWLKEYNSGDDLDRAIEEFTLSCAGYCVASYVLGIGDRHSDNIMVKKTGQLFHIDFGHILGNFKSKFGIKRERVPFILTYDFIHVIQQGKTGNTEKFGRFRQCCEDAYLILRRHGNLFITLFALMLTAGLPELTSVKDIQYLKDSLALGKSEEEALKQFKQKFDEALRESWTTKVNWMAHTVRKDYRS

IC50 [1] [µM] | further results | SMILES
> 200 |  | O=C(Cc1nnc(-c2ccc3ncccc3c2)o1)Nc1cccc(C(F)(F)F)c1
18.3 |  | COc1ccccc1CNC(=O)Cc1nnc(-c2ccc3ncccc3c2)o1
> 200 |  | O=C(Cc1nnc(-c2ccc3ncccc3c2)o1)N1CCN(c2ccccc2)CC1
29.2 | inhibition [2]: 73.8% | O=C(Cc1nnc(-c2ccc3ncccc3c2)o1)NCCc1ccccc1
> 200 |  | O=C(Cc1nnc(-c2ccccn2)o1)NCc1ccc(F)cc1Cl
7.6 | Ratio IC50 [3]: 20; IC50 [4]: 152 µM; IC50 [5]: 4.1 µM; IC50 [6]: 14.2 µM | COc1ccc(CNC(=O)Cc2nnc(-c3ccc4ncccc4c3)o2)cc1OC
15.6 | inhibition [2]: 55.5% | O=C(Cc1nnc(-c2ccc3ncccc3c2)o1)NCc1ccc(F)cc1Cl
6.6 | IC50 [4]: 9.8 µM; IC50 [5]: 2.6 µM; IC50 [6]: 16.6 µM | O=C(Cc1nnc(-c2ccc3ncccc3c2)o1)NCCc1ccc(Cl)cc1
> 200 |  | COc1ccc(NC(=O)Cc2nnc(-c3ccc4ncccc4c3)o2)cc1OC
17 | inhibition [2]: 71.9% | CC(C)NC(=O)CSc1nc(-c2ccc3c(c2)OCO3)nc2cc(=O)[nH]n12
> 200 |  | O=C(Cc1nnc(-c2ccc3ncccc3c2)o1)Nc1ccc(OC(F)(F)F)cc1
> 200 |  | O=C(Cc1nnc(-c2ccc3c(c2)OCO3)o1)NCc1ccc(F)cc1
> 200 |  | N#Cc1cc(NC(=O)Cc2nnc(-c3ccc4ncccc4c3)o2)ccc1F
